The assay addresses BRAF^V600E protein (Homo sapiens, UniProt P15056, V600E). The assay is described as follows: HiBiT cellular BRAF V600E degradation assay. Type of assay: cell-based. The following applies: 24 h incubation; for DC50: A375.10 cells (HiBiT tag knocked in at N-terminal of BRAF V600E), concentration at which 50% of total cellular BRAF V600E is degraded; for Emax: read-out: HiBit 24 h Emax. Background: With HiBiT, luminescence reflects the tagged protein that the partner subunit can reach.

Where [1] appears, read: A375.10 cells, Emax = amount of residual protein remaining in the cell after compound treatment.

Chain of BRAF^V600E protein (P15056 whole entry V600E): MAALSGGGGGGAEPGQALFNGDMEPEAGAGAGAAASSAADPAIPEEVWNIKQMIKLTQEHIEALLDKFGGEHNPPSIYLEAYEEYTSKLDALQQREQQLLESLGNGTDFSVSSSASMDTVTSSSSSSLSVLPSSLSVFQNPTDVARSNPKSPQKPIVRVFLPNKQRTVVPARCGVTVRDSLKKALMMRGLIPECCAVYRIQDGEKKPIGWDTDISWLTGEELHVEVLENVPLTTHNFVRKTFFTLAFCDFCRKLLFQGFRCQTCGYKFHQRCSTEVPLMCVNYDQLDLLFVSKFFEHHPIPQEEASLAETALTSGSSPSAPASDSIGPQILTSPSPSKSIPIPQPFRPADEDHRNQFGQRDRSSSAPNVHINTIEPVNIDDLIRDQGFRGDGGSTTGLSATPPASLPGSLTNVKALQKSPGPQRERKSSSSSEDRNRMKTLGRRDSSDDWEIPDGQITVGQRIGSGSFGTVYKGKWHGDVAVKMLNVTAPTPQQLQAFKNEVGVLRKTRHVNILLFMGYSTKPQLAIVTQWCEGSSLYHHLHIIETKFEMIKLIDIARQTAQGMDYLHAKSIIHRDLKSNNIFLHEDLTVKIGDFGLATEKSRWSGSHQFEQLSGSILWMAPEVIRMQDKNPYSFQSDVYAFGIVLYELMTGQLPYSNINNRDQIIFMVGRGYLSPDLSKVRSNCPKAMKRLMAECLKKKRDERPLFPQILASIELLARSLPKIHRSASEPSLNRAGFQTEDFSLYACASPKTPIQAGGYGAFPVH

In the case of `CCN(C)S(=O)(=O)Nc1ccc(F)c(C(=O)c2c[nH]c3ncc(-c4cnc(N5CCN(C(=O)CN6CCC(c7ccc8c(C9CCC(=O)NC9=O)nn(C)c8c7)CC6)CC5)nc4)cc23)c1F` (stereo not shown) [Example 27, 3-(2,6-dioxo-3-piperidyl)-6-[1-[2-[4-[5-[3-[3-[[ethyl(methyl)sulfamoyl]amino]-2,6-difluoro-benzoyl]-1H-pyrrolo[2,3-b]pyridin-5-yl]pyrimidin-2-yl]piperazin-1-yl]-2-oxo-ethyl]-4-piperidyl]-1-methyl-indazole], the DC50 – broadly, the concentration giving 50% degradation – was 2.09 nM. The Emax – broadly, the size of the effect at its maximum, as opposed to the concentration needed – under setting [1] amounted to 10.8%.

`CCN(C)S(=O)(=O)Nc1ccc(F)c(C(=O)c2c[nH]c3ncc(-c4ccc(CN5CCN(C(=O)CN6CCN(c7ccc(NC8CCC(=O)NC8=O)cc7)CC6)CC5)cc4)cc23)c1F.O=C(O)C(F)(F)F` (stereo not shown) [Example A24, 5-[4-[[4-[2-[4-[4-[(2,6-Dioxopiperidin-3-yl)amino]phenyl]piperazin-1-yl]acetyl]piperazin-1-yl]methyl]phenyl]-3-[3-[[ethyl(methyl)sulfamoyl]amino]-2,6-difluorobenzoyl]-1H-pyrrolo[2,3-b]pyridine; 2,2,2-trifluoroacetic acid] yielded a DC50 of 30 nM. In addition, the “HiBit 24 h Emax” value under setting [1] came to 13%.

In the case of `CCN(C)S(=O)(=O)Nc1ccc(F)c(C(=O)c2c[nH]c3ncc(-c4ccc(N5CCN(C(=O)CC6(O)CCN(c7ccc(NC8CCC(=O)NC8=O)cn7)CC6)CC5)cc4)cc23)c1F` (stereo not shown) [Example 88, 5-[4-[4-[2-[1-[5-[(2,6-dioxo-3-piperidyl)amino]-2-pyridyl]-4-hydroxy-4-piperidyl]acetyl]piperazin-1-yl]phenyl]-3-[3-[[ethyl(methyl)sulfamoyl]amino]-2,6-difluoro-benzoyl]-1H-pyrrolo[2,3-b]pyridine], half-maximal degradation (DC50) was put at 15.7 nM. The Emax under setting [1] was found to be 22.2%.

With `CCN(C)S(=O)(=O)Nc1cccc(C(=O)c2c[nH]c3ncc(-c4ccc(N5CCN(C(=O)CC6(O)CCN(c7ccc(NC8CCC(=O)NC8=O)cc7F)C6)CC5)cc4)cc23)c1F` (stereo not shown) [Example 118, 5-[4-[4-[2-[1-[4-[(2,6-dioxo-3-piperidyl)amino]-2-fluoro-phenyl]-3-hydroxy-pyrrolidin-3-yl]acetyl]piperazin-1-yl]phenyl]-3-[3-[[ethyl(methyl)sulfamoyl]amino]-2-fluoro-benzoyl]-1H-pyrrolo[2,3-b]pyridine], it took 27.2 nM to reach half-maximal degradation (DC50). Also, the Emax under setting [1] worked out at 13.4%.

`CCN(C)S(=O)(=O)Nc1ccc(F)c(C(=O)c2c[nH]c3ncc(-c4cnc(N5CC[C@@H](CC(=O)N6CCC(c7ccc(NC8CCC(=O)NC8=O)cc7)CC6)C5)nc4)cc23)c1F` (stereo partly drawn) [Example 131, 5-[2-[(3S)-3-[2-[4-[4-[(2,6-dioxo-3-piperidyl)amino]phenyl]-1-piperidyl]-2-oxo-ethyl]pyrrolidin-1-yl]pyrimidin-5-yl]-3-[3-[[ethyl(methyl)sulfamoyl]amino]-2,6-difluoro-benzoyl]-1H-pyrrolo[2,3-b]pyridine] yielded a DC50 of 27.1 nM. The Emax under setting [1] was determined as 21.2%.

As to `CCN(C)S(=O)(=O)Nc1cccc(C(=O)c2c[nH]c3ncc(-c4cnc(N5CCN(C(=O)CN6CCC(c7ccc(NC8CCC(=O)NC8=O)cc7)C(F)(F)C6)CC5)nc4)cc23)c1F` (stereo not shown) [Example 100, 5-[2-[4-[2-[4-[4-[(2,6-dioxo-3-piperidyl)amino]phenyl]-3,3-difluoro-1-piperidyl]acetyl]piperazin-1-yl]pyrimidin-5-yl]-3-[3-[[ethyl(methyl)sulfamoyl]amino]-2-fluoro-benzoyl]-1H-pyrrolo[2,3-b]pyridine], the DC50 is 9.52 nM. Besides, the Emax under setting [1] was 6.76%.

Regarding `CCN(C)S(=O)(=O)Nc1ccc(F)c(C(=O)c2c[nH]c3ncc(-c4cnc(N5CCN(C(=O)CN6CCN(c7ccc(NC8CCC(=O)NC8=O)cc7)CC6)CC5)nc4)cc23)c1F` (stereo not shown) [Example A16, 5-[2-[4-[2-[4-[4-[(2,6-Dioxopiperidin-3-yl)amino]phenyl]piperazin-1-yl]acetyl]piperazin-1-yl]pyrimidin-5-yl]-3-[3-[[ethyl(methyl)sulfamoyl]amino]-2,6-difluorobenzoyl]-1H-pyrrolo[2,3-b]pyridine], the DC50 was 8 nM. For the same compound, the Emax under setting [1] is 11%.

For the compound `CC(C)S(=O)(=O)Nc1ccc(F)c(C(=O)c2c[nH]c3ncc(-c4ccc(N5CCN(C(=O)C6CC(N7CCC(c8ccc(NC9CCC(=O)NC9=O)cc8)CC7)C6)CC5)nc4)cc23)c1F` (stereo not shown) [Example A107, N-[3-[5-[6-[4-[3-[4-[4-[(2,6-Dioxopiperidin-3-yl)amino]phenyl]piperidin-1-yl]cyclobutanecarbonyl]piperazin-1-yl]pyridin-3-yl]-1H-pyrrolo[2,3-b]pyridine-3-carbonyl]-2,4-difluorophenyl]propane-2-sulfonamide], the DC50 was 12 nM. For the same compound, under setting [1], the Emax was determined as 12%.

In the case of `CCN(C)S(=O)(=O)Nc1cccc(C(=O)c2c[nH]c3ncc(-c4ccc(N5CCN(C(=O)CC6(O)CCN(c7ccc(C8CCC(=O)NC8=O)cc7F)CC6)CC5)nc4)cc23)c1F` (stereo not shown) [Example 159, 5-[6-[4-[2-[1-[4-(2,6-dioxo-3-piperidyl)-2-fluoro-phenyl]-4-hydroxy-4-piperidyl]acetyl]piperazin-1-yl]-3-pyridyl]-3-[3-[[ethyl(methyl)sulfamoyl]amino]-2-fluoro-benzoyl]-1H-pyrrolo[2,3-b]pyridine], the DC50 is 3.51 nM. In addition, the Emax under setting [1] is 6.33%.

As to `CCN(C)S(=O)(=O)Nc1cccc(C(=O)c2c[nH]c3ncc(-c4cnc(N5CCN(C(=O)CC6(O)CCN(c7ccc(C8CCC(=O)NC8=O)cc7F)CC6)CC5)nc4)cc23)c1F` (stereo not shown) [Example 162, 5-[2-[4-[2-[1-[4-(2,6-dioxo-3-piperidyl)-2-fluoro-phenyl]-4-hydroxy-4-piperidyl]acetyl]piperazin-1-yl]pyrimidin-5-yl]-3-[3-[[ethyl(methyl)sulfamoyl]amino]-2-fluoro-benzoyl]-1H-pyrrolo[2,3-b]pyridine], it took 2.09 nM to reach half-maximal degradation (DC50). For the same compound, the Emax under setting [1] came out at 7.81%.

Turning to `CCN(C)S(=O)(=O)Nc1ccc(F)c(C(=O)c2c[nH]c3ncc(-c4ccc(N5CCC(NC(=O)CN6CCC(c7ccc(OC8CCC(=O)NC8=O)cc7)CC6)CC5)nc4)cc23)c1F` (stereo not shown) [Example A61, 2-[4-[4-(2,6-Dioxopiperidin-3-yl)oxyphenyl]piperidin-1-yl]-N-[1-[5-[3-[3-[[ethyl(methyl)sulfamoyl]amino]-2,6-difluorobenzoyl]-1H-pyrrolo[2,3-b]pyridin-5-yl]pyridin-2-yl]piperidin-4-yl]acetamide;formic acid], it took 40 nM to reach half-maximal degradation (DC50). The Emax under setting [1] came out at 16%.

As to `CCN(C)S(=O)(=O)Nc1ccc(F)c(C(=O)c2c[nH]c3ncc(-c4cnc(N5CCN(C(=O)CN6CCC(c7c(F)cc(OC8CCC(=O)NC8=O)cc7F)CC6)CC5)nc4)cc23)c1F` (stereo not shown) [Example 41, 5-[2-[4-[2-[4-[4-[(2,6-dioxo-3-piperidyl)oxy]-2,6-difluoro-phenyl]-1-piperidyl]acetyl]piperazin-1-yl]pyrimidin-5-yl]-3-[3-[[ethyl(methyl)sulfamoyl]amino]-2,6-difluoro-benzoyl]-1H-pyrrolo[2,3-b]pyridine], the DC50 worked out at 24.5 nM. For the same compound, the Emax under setting [1] turned out to be 9.48%.

The compound `O=C1CCC(Oc2ccc(C3CCN(CC(=O)N4CC5(C4)CN(c4ccc(-c6cnc7[nH]cc(C(=O)c8c(F)ccc(NS(=O)(=O)N9CC[C@@H](F)C9)c8F)c7c6)cn4)C5)CC3)cc2)C(=O)N1` (stereo partly drawn) [Example A115, (3R)—N-[3-[5-[6-[2-[2-[4-[4-(2,6-dioxopiperidin-3-yl)oxyphenyl]piperidin-1-yl]acetyl]-2,6-diazaspiro[3.3]heptan-6-yl]pyridin-3-yl]-1H-pyrrolo[2,3-b]pyridine-3-carbonyl]-2,4-difluorophenyl]-3-fluoropyrrolidine-1-sulfonamide] displayed a DC50 of 204 nM. For the same compound, the Emax under setting [1] is 15%.

`CCN(C)S(=O)(=O)Nc1ccc(F)c(C(=O)c2c[nH]c3ncc(-c4ccc(CN5CCN(C(=O)CN6Cc7ccc(NC8CCC(=O)NC8=O)cc7C6)CC5)nc4)cc23)c1F` (stereo not shown) [Example A38, 5-[6-[[4-[2-[5-[(2,6-Dioxopiperidin-3-yl)amino]-1,3-dihydroisoindol-2-yl]acetyl]piperazin-1-yl]methyl]pyridin-3-yl]-3-[3-[[ethyl(methyl)sulfamoyl]amino]-2,6-difluorobenzoyl]-1H-pyrrolo[2,3-b]pyridine] displayed a DC50 of 47 nM. For the same compound, the Emax under setting [1] stood at 20%.

In turn, `CCN(C)S(=O)(=O)Nc1cccc(C(=O)c2c[nH]c3ncc(-c4ccc(N5CCN(C(=O)CC6(O)CCN(c7ccc(NC8CCC(=O)NC8=O)cc7F)C6)CC5)nc4)cc23)c1F` (stereo not shown) [Example 114, 5-[6-[4-[2-[1-[4-[(2,6-dioxo-3-piperidyl)amino]-2-fluoro-phenyl]-3-hydroxy-pyrrolidin-3-yl]acetyl]piperazin-1-yl]-3-pyridyl]-3-[3-[[ethyl(methyl)sulfamoyl]amino]-2-fluoro-benzoyl]-1H-pyrrolo[2,3-b]pyridine] gave a DC50 of 2.29 nM. Also, under setting [1], the Emax was 10.9%.

As for `CCN(C)S(=O)(=O)Nc1cccc(C(=O)c2c[nH]c3ncc(-c4cnc(N5CCN(C(=O)CC6CCN(c7ccc(NC8CCC(=O)NC8=O)cc7F)CC6)CC5)nc4)cc23)c1F` (stereo not shown) [Example 98, 5-[2-[4-[2-[1-[4-[(2,6-dioxo-3-piperidyl)amino]-2-fluoro-phenyl]-4-piperidyl]acetyl]piperazin-1-yl]pyrimidin-5-yl]-3-[3-[[ethyl(methyl)sulfamoyl]amino]-2-fluoro-benzoyl]-1H-pyrrolo[2,3-b]pyridine], it took 4.67 nM to reach half-maximal degradation (DC50). The Emax under setting [1] was 7.42%.

`CCN(C)S(=O)(=O)Nc1ccc(F)c(C(=O)c2c[nH]c3ncc(-c4ccc(N5CCC(NC(=O)CN6CCC(c7ccc(NC8CCC(=O)NC8=O)cn7)CC6)CC5)cc4)cc23)c1F` (stereo not shown) [Example A56, 2-[4-[5-[(2,6-dioxopiperidin-3-yl)amino]pyridin-2-yl]piperidin-1-yl]-N-[1-[4-[3-[3-[[ethyl(methyl)sulfamoyl]amino]-2,6-difluorobenzoyl]-1H-pyrrolo[2,3-b]pyridin-5-yl]phenyl]piperidin-4-yl]acetamide; formic acid] registered a DC50 of 20 nM. In addition, the Emax under setting [1] was determined as 11%.

Values taken from patent US12559492B2, “BRAF degraders” (C4 Therapeutics, Inc., priority 2020, dated 2026).
